The source of these data is ChEMBL document CHEMBL4368885, “Quinolone-isoniazid hybrids: synthesis and preliminary in vitro cytotoxicity and anti-tuberculosis evaluation” (Medchemcomm, 2019).

A short description of data set [1]: Cytotoxicity against human HeLa cells assessed as cell viability at 20 uM after 24 hrs by resazurin dye-based fluorescence assay relative to control. As to conditions: read-out: Activity.
Data set [2] has as its system Mycobacterium tuberculosis. The experiment in a line: microbe, parasite or virus in culture. The conditions noted are these: H37Rv.
Description: Antitubercular activity against Mycobacterium tuberculosis H37Rv after 7 to 14 days by broth micro dilution method
Data set [3] is described as follows: Metabolic stability in pooled human liver microsomes assessed as percentage of compound remaining at 1 uM by LC-MS/MS analysis. It is filed as ADME, Microsome. As to conditions: read-out: Stability.
The nature of data set [4]: Hepatic extraction ratio in pooled human liver microsomes at 1 uM by LC-MS/MS analysis. It is filed as ADME, Microsome. The conditions noted are these: read-out: ERH.
Data set [5] is described as follows: Half life in rat liver microsomes at 1 uM by LC-MS/MS analysis. It is filed as ADME, Microsome.
Data set [6] in a line: Metabolic stability in mouse liver microsomes assessed as percentage of compound remaining at 1 uM by LC-MS/MS analysis. It is filed as ADME, Microsome. The conditions noted are these: read-out: Stability.
Data set [7] is described as follows: Intrinsic clearance in rat liver microsomes assessed per mg protein at 1 uM by LC-MS/MS analysis. It is filed as ADME, Microsome.
A short description of data set [8]: Metabolic stability in rat liver microsomes assessed as percentage of compound remaining at 1 uM by LC-MS/MS analysis. Type of data set: ADME, Microsome. As to conditions: read-out: Stability.
Data set [9] can be described thus: Half life in pooled human liver microsomes at 1 uM by LC-MS/MS analysis. It is filed as ADME, Microsome.
A short description of data set [10]: Aqueous solubility in pH 6.5 PBS at 10 to 220 uM after 20 hrs by nephelometric analysis. It is filed as physicochemical.
The nature of data set [11]: Hepatic extraction ratio in mouse liver microsomes at 1 uM by LC-MS/MS analysis. Type of data set: ADME, Microsome. As to conditions: read-out: ERH.
Data set [12] can be described thus: Intrinsic clearance in pooled human liver microsomes assessed per mg protein at 1 uM by LC-MS/MS analysis. It is filed as ADME, Microsome.
The nature of data set [13]: Intrinsic clearance in mouse liver microsomes assessed per mg protein at 1 uM by LC-MS/MS analysis. Type of data set: ADME, Microsome.
A short description of data set [14]: Half life in mouse liver microsomes at 1 uM by LC-MS/MS analysis. It is filed as ADME, Microsome.
Data set [15] can be described thus: Hepatic extraction ratio in rat liver microsomes at 1 uM by LC-MS/MS analysis. Type of data set: ADME, Microsome. The conditions noted are these: read-out: ERH.
The test system of a further data set is HeLa. Kind of data set: Cytotoxicity against human HeLa cells assessed as reduction in cell viability after 24 hrs by resazurin dye-based fluorescence assay.

Converted amounts (≈) assume the structure as drawn.

Regarding `C/C(=N\NC(=O)c1ccncc1)c1ccc2c(c1)c(=O)c(C(=O)NCCOCCO)cn2Cc1ccc(Br)cc1`, the viability at 24 h, 20 µM in data set [1] is < 75%. This compound showed an MIC90 in [2] of 2.7 µM (≈ 1.64 µg/mL).

In the case of `C/C(=N\NC(=O)c1ccncc1)c1ccc2c(c1)c(=O)c(C(=O)NCCNCCO)cn2Cc1ccccc1`, the viability at 24 h, 20 µM in data set [1] was < 75%. The compound further had an MIC90 in data set [2] of 2 µM (≈ 1.05 µg/mL).

With `C/C(=N\NC(=O)c1ccncc1)c1ccc2c(c1)c(=O)c(C(=O)NCCNCCO)cn2Cc1ccc(C(F)(F)F)cc1`, the viability at 24 h, 20 µM in data set [1] is < 75%. Moreover, the MIC90 in data set [2] came to 1.8 µM (≈ 1.07 µg/mL).

With `CCn1cc(C(=O)NCCOC)c(=O)c2cc(/C(C)=N/NC(=O)c3ccncc3)ccc21`, the figures for the remaining at 1 µM in data set [3], in [6] and in [8] were 90.6%, 77% and 87%, respectively. For the same compound, the hepatic extraction ratio at 1 µM in [4] is < 0.42; in data set [11], < 0.49; in data set [15] it was < 0.3. The values for the half-life at 1 µM in data set [5], in [9] and in [14] were > 2.5 h, > 2.5 h and 1.33 h, respectively. Further, the CLH in data set [7] was 18.7 µg/min; in data set [12], 13.3 µg/min; in data set [13], 35.3 µg/min. Besides, the viability at 24 h, 20 µM in data set [1] is < 75%. In data set [10], this compound returned a solubility (kinetic) at 20 h of 95 µM (≈ 41.4 µg/mL). Besides, the MIC90 in data set [2] amounted to 0.8 µM (≈ 0.348 µg/mL).

Regarding `COCCNC(=O)c1cn(Cc2ccc(Cl)cc2Cl)c2ccc(/C(C)=N/NC(=O)c3ccncc3)cc2c1=O`, the viability at 24 h, 20 µM in [1] is < 75%. Further, the MIC90 in data set [2] was 4.8 µM (≈ 2.72 µg/mL).

In the case of `CC(=O)c1ccc2c(c1)c(=O)c(C(=O)NCCNCCO)cn2Cc1ccc(Cl)cc1Cl`, the viability at 24 h, 20 µM in [1] was < 75%. Also, in data set [2], the MIC90 stood at 125 µM (≈ 59.5 µg/mL).

Regarding `CCOC(=O)c1cn(CC)c2ccc(/C(C)=N/NC(=O)c3ccncc3)cc2c1=O`, the viability at 24 h, 20 µM in data set [1] is < 75%. This compound also returned an MIC90 in data set [2] of 0.2 µM (≈ 0.0813 µg/mL).

In the case of `CCOC(=O)c1cn(C)c2ccc(/C(C)=N/NC(=O)c3ccncc3)cc2c1=O`, the viability at 24 h, 20 µM in data set [1] was < 75%. In data set [2], this compound had an MIC90 of 0.9 µM (≈ 0.353 µg/mL).

Take `CCn1cc(C(=O)NCCCn2ccnc2)c(=O)c2cc(/C(C)=N/NC(=O)c3ccncc3)ccc21`: the viability at 24 h, 20 µM in data set [1] is < 75%. In data set [2], this compound came in with an MIC90 of 7.8 µM (≈ 3.79 µg/mL).

Regarding `C/C(=N\NC(=O)c1ccncc1)c1ccc2c(c1)c(=O)c(C(=O)NCCNCCO)cn2Cc1ccc(Br)cc1`, in [1], the viability at 24 h, 20 µM was < 75%. In [2], the MIC90 worked out at 0.8 µM (≈ 0.484 µg/mL).

For the compound `COCCNC(=O)c1cn(Cc2ccccc2)c2ccc(C(C)=O)cc2c1=O`, the viability at 24 h, 20 µM in data set [1] is < 75%. The compound also returned an MIC90 in data set [2] of 43.4 µM (≈ 16.4 µg/mL).

Turning to `CC[C@H]1CN2CCc3cc(OC)c(OC)cc3[C@@H]2C[C@@H]1C[C@H]1NCCc2cc(OC)c(OC)cc21` [EMETINE], the IC50 with HeLa worked out at 15 nM.

Consider `NNC(=O)c1ccncc1` [ISONIAZID], for which the MIC90 in data set [2] was determined as 0.2 µM (≈ 0.0274 µg/mL).

For `CO[C@H]1/C=C/O[C@@]2(C)Oc3c(C)c(O)c4c(O)c(c(/C=N/N5CCN(C)CC5)c(O)c4c3C2=O)NC(=O)/C(C)=C\C=C\[C@H](C)[C@H](O)[C@@H](C)[C@@H](O)[C@@H](C)[C@H](OC(C)=O)[C@@H]1C` [RIFAMPIN], the MIC90 in data set [2] was 0.06 µM (≈ 0.0494 µg/mL).
